# Read-outs that look alike come from different tables or passages of the source.
# Tests used:
# Solubility in solvents = assay: Solubility in solvents
# Procedure: Trityl thiol was dissolved in 0.6 mL of DCM and cooled to 0° C. TFA (30 μL) and iPr3SiH (2.0 μL, 10 μmol) were added to the solution at 0° C. The bath was removed and the reaction was allowed to stir at room temperature for 1 h. Solvent was removed by argon flow and the residue 14 is taken crude for biological evaluation.
# tumor = assay: In vivo tumor growth inhibition study
# Excerpt: Although the distribution effect of these compounds is similar, there is a notable difference in drug exposure of ˜30 percent for the peptide isostere.
# HDAC8 = biological target: T1, HDAC8 (Homo sapiens, UniProt Q9BY41); assay: Biochemical profiling for HDACi activity, miniaturized assay platform (HDAC1-9); conditions: compared with IC50 for HDACs 1-3
# T1 sequence (Q9BY41 1-377): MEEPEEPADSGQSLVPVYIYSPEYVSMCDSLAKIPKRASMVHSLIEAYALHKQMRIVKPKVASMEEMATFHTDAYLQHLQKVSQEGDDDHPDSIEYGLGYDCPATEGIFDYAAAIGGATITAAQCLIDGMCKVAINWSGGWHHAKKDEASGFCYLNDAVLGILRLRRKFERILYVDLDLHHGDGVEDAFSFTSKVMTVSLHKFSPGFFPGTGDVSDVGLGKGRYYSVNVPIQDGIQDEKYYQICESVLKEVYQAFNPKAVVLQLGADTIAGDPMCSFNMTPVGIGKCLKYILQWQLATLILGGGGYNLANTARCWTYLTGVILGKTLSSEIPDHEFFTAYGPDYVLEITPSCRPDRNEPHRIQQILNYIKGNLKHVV
# HDAC2 = HDAC2 (Homo sapiens, UniProt Q92769); assay: as above
# HDAC1 = HDAC1 (Homo sapiens, UniProt Q13547); assay: as above
# [1] = test system: NOTCH1 mutated T-ALL cells (DND41); assay: ATP-based cell viability assay (CellTiter-Glo) in T-ALL cells; conditions: DND41, 72, 144, 216 hours, 10 μM to 0.078 μM, FIGS. 11-13
# Procedure: (§1) To test the hypothesis that largazole folate-conjugated small molecules target T-ALL, dose-ranging ATP content assays were performed. […] Next, an ATP-based assay (CellTiter-Glo, Promega®) was used to calculate the half-maximal inhibitory concentration (IC50) of cell viability. Graphs were plotted as a fraction of cells alive (y-axis) using Prism GraphPad 6 software and drug doses expressed as Log [μM] (x-axis).
# [2] = test system: NOTCH1 mutated T-ALL cells (ALL/SIL); assay: as above; conditions: ALL/SIL, 72, 144, 216 hours, 10 μM to 0.078 μM, FIGS. 14-16
# Procedure: as §1
# Class I HDAC = assay: HDAC biochemical selectivity profiling; conditions: FIG. 1B, versus free Largazole-thiol
# HDACs1, 2 & 3 = assay: Affinity precipitation from HeLa Nuclear Extract with streptavidin beads, immunoblot; type: binding; conditions: 1 μM in 200 μL HeLa Nuclear Extract, 16 hr incubation, FIG. 1C
# Procedure: 1 μM Largazole-Btn (54) in 200 μL of HeLa Nuclear Extract […] of streptavidin beads added after 16 hr incubation with compound.
# Sequence of HDAC1 (Q13547 whole entry): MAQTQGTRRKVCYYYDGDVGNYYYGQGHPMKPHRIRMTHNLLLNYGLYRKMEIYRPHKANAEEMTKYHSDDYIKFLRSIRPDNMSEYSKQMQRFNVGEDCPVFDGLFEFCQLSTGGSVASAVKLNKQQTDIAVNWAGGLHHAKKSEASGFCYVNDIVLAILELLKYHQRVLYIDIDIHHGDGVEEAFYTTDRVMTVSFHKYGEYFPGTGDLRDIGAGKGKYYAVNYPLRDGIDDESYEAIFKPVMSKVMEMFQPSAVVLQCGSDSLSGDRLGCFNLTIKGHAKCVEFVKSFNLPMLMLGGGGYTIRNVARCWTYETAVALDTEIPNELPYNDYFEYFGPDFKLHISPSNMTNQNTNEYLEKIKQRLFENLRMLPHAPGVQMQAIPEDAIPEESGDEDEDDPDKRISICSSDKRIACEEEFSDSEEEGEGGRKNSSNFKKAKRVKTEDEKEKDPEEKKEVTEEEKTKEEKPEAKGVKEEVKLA
# Sequence of HDAC2 (Q92769 whole entry): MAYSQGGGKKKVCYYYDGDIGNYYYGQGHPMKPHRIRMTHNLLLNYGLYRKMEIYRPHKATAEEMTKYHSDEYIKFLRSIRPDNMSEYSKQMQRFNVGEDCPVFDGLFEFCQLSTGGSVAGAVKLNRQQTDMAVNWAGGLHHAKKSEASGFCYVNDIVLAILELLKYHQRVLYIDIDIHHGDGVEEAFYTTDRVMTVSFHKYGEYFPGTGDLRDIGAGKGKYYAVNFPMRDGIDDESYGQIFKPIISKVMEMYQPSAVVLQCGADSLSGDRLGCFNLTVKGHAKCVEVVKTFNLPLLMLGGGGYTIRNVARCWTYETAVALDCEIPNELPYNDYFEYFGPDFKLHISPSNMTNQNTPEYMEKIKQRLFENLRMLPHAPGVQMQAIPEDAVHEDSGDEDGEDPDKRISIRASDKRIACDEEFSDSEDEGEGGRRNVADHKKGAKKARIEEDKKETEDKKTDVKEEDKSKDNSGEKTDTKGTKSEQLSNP
molecule,measurement,setting,value
CC(C)[C@@H]1NC(=O)[C@]2(C)CSC(=N2)c2nc(sc2-c2ccc(CNC(=O)CC[C@H](NC(=O)c3ccc(NCc4cnc5nc(N)[nH]c(=O)c5n4)cc3)C(=O)O)cc2)CNC(=O)CC(/C=C/CCS)NC1=O (some centres unmarked) [Compound 14],solubility in organic solvent,Solubility in solvents; crude product,very poor
same,solubility in water,Solubility in solvents; crude product,not soluble in water
CCCCCCCC(=O)SCC/C=C/C1CC(=O)NCc2nc(c(-c3ccc(CNC(=O)CC[C@H](NC(=O)c4ccc(NCc5cnc6nc(N)[nH]c(=O)c6n5)cc4)C(=O)O)cc3)s2)C2=N[C@@](C)(CS2)C(=O)NC(C(C)C)C(=O)N1 (some centres unmarked),solubility (solvents),Solubility in solvents,"soluble in mixture of CH2Cl2-MeOH, or DMSO"
CCCCCCCC(=O)SCC/C=C/[C@@H]1CC(=O)NCc2nc(cs2)C2=N[C@@](C)(CS2)C(=O)N[C@@H](C(C)C)C(=O)O1 [Largazole],tumor growth inhibition,tumor,34%
same,IC50 HDAC8,HDAC8,much higher
same,IC50,HDAC2,< 20 nM
same,IC50,HDAC1,< 20 nM
CCCCCCCC(=O)SCC/C=C/C1CC(=O)NCc2nc(c(-c3ccc(COC(=O)CC[C@H](NC(=O)c4ccc(NCc5cnc6nc(N)[nH]c(=O)c6n5)cc4)C(=O)O)cc3)s2)C2=N[C@@](C)(CS2)C(=O)NC(C(C)C)C(=O)N1 (some centres unmarked),solubility (solvents),Solubility in solvents; FIG. 10 legend,"soluble in MeOH, CHCl3, DMSO"
same,cell viability,[1],loss of cellular viability
same,cell viability,[2],loss of cellular viability
CC(C)[C@@H]1NC(=O)[C@]2(C)CSC(=N2)c2nc(sc2-c2ccc(CNC(=O)CCCCCNC(=O)CCCCCNC(=O)CCCCC3SC[C@@H]4NC(=O)N[C@H]34)cc2)CNC(=O)CC(/C=C/CCS)OC1=O (some centres unmarked) [Largazole-Biotin],biochemical selectivity,Class I HDAC,compares favorably to free Largazole-thiol
same,affinity precipitation of HDACs by immunoblot,"HDACs1, 2 & 3","affinity precipitation of HDACs1, 2 & 3"
CC(C)C1NC(=O)[C@]2(C)CSC(=N2)c2nc(sc2-c2ccc(CNC(=O)CC[C@H](NC(=O)c3ccc(NCc4cnc5nc(N)[nH]c(=O)c5n4)cc3)C(=O)O)cc2)CNC(=O)CC(/C=C/CCS)NC1=O (some centres unmarked),solubility (solvents),Solubility in solvents; FIG. 10 legend,only soluble in DMSO
largazole thiol,tumor growth inhibition,tumor,44%
